For series [1], the target named is T1, human PTGR2 (hPTGR2) (Homo sapiens, UniProt Q8N8N7).
T1 construct: made in house
Nature of the series: Recombinant human PTGR2 enzymatic inhibition (NADPH-Glo), IC50. It counts as biochemical. Here is the method: High-throughput compound screening was conducted at the core service in the Genomics Research Center (GRC) of Academia Sinica, Taiwan. The GRC 120 K ReSet comprises more than 125,000 compounds, selected as representatives by structural similarity clustered from the 2 M GRC compound library. The ReSet was arrayed in 1536-well plates as single compounds at 1 mM in 100% DMSO. The quality of all compounds was assured by the vendor (purity is greater than 90%) and was verified internally with 5% random sampling. Recombinant human PTGR2 protein was purified, and the screening was conducted using the NADPH-Glo Detection kit (Promega) to measure the amount of NADPH. The CV of HTS ranged from 4.8% to 6.1%, with a Z’ value of 0.7. The threshold was set as 1.5, resulting in ~300 hits for further confirmation and determination of the half-maximal inhibitory concentration (IC50). […]

Series [2] has as its system HFHSD-fed obese C57BL6/J mice. Description: Hepatic steatosis (H&E) and hepatic triglycerides content. To be noted: 100 mg/kg/day oral, vs vehicle. It counts as in vivo, mouse. How it is done:
Tissues were fixed in 4% paraformaldehyde and then embedded in paraffin before sectioning and staining. The stained sections were scanned and analyzed using a MIRAX viewer (http://www.zeiss.de/mirax) and Image J software (http://rsbwed.nih.gov/ij/).
Approximately 80 mg of liver tissue was homogenized in 1800 μl of chloroform/methanol (2/1). Then, 360 μl of H2O was added. The homogenates were centrifuged at 2000 rpm for 10 min. The lower 200-μl layer was added with 100 μl of chloroform with 4% Triton X-100 and dried in a chemical hood. The dried pellet was redissolved with 200 μl of H2O and was determined the triglyceride concentrations with Wako TG LabAssay kit (cat. no. 290-63701, Wako).

Series [3] is described as follows: Serum ALT, total bilirubin, BUN and creatinine. Type of series: in vivo, mouse. To be noted: 100 mg/kg/day, vs vehicle.
Series [4] is described as follows: Necropsy, gross and histopathological examination. It counts as in vivo, mouse. Details: key to Brain, Forebrain / Brain, Cerebellum and Pons / Heart: Vacuolation, cardiomyocyte / Lung: Alveolar epithelium hyperplasia / Lung: Chronic inflammation, focal / Liver: Hepatocellular adenoma, multiple / Brain, Midbrain / Kidney: Hyaline cast, renal tubule / Kidney: Cytoplasmic vacuolation, renal tubule / Kidney: Mineralization, renal tubule / Pancreas: Atrophy and accumulation adipocyte, acinar cell / Pancreas: Pancreatic islets hyperplasia / Pancreas: Lymphocytic infiltration, perivascular / Brown fat: Increased adipocyte size / White fat (Perigonadal fat) / Bone marrow, Sternum/ Femur / Bone marrow: Mineralization, focal / Bone marrow: Cellularity, decreased, bone marrow: + = Present; - =Not present; X=Not remarkable lesion; 1 = minimal (< 1%); 2 = mild (1–25%); 3 = moderate (26–50%); 4 = moderately severe (51–75%); 5 = severe/high (76–100%). As to conditions: for overall toxicity / pathology conclusion: mice treated 26 weeks. How it is done:
The animals were sacrificed by exsanguination under anesthesia with pure carbon dioxide.
At necropsy, tissue samples of the submitted mice were collected and preserved in 10% neutral buffered formalin. The required tissues/organs of animals were trimmed, processed, and embedded in paraffin. Sections 3–5 μm in thickness were cut and put on slides for hematoxylin and eosin (H&E) staining. The histopathological evaluation was performed on the submitted tissues. Severity of lesions was graded according to the methods described (Shackelford et al, [2002]). Degrees of lesions were graded histopathologically from one to five depending on severity (1 = minimal; 2 = slight; 3 = moderate; 4 = moderately severe; 5 = severe/high).

Series [5] concerns the target T2, mPPARγ LBD H351A mutant (Mus musculus, UniProt P37238, H351A).
T2 construct: mPPARγ LBD H351A mutant
Nature of the series: Native mass spectrometry ligand binding, mPPARγ LBD H351A. Details: species or system murine. Here is the method: Wide-type mPPARγ ligand binding domain (LBD), mPPARγ LBD C313A mutant, and mPPARγ LBD H351A mutant were mixed together in a 1:1:1 molar ratio and then incubated with 15-keto-PEG2 or pioglitazone in a 1:10 molar ratio for 5 min at room temperature, respectively. The protein mixture was buffer-exchanged into 500 mM ammonium acetate buffer pH 7.5 using 7 K Zeba™ Spin Desalting Column (cat. no, 89877, Thermo) and immediately introduced into a modified Q-Exactive mass spectrometer (Thermo). The sets of optimized parameters were applied to analyze the ligand binding, including the higher-energy collisional dissociation (HCD) energy of 20 V; spray voltage, 1.1 kV; capillary temperature, 200 °C; S-lens RF level, 200; and resolution, 12,500 at m/z 400. Spectra were acquired and processed manually using Thermo Xcalibur Qual Browser (version 4.4.16.14). The relative percentage of compound-bound forms was quantified by the UniDec software and the degree of effector coupling was calculated by normalizing the relative percentage of bound forms to the sum of the percentage of unbound and bound forms.

[6] abbreviates: Test group, one animal, 26 weeks.
Where [7] appears, read: Test group, one value per animal, 26 weeks.

As a reminder, the IC50 is the midpoint of a concentration-inhibition curve.

Values joined by “and” are separate entries in the source; they are usually repeats but may differ in a detail not shown here. Equal entries are not always repeated.

T1 sequence (Q8N8N7 whole entry): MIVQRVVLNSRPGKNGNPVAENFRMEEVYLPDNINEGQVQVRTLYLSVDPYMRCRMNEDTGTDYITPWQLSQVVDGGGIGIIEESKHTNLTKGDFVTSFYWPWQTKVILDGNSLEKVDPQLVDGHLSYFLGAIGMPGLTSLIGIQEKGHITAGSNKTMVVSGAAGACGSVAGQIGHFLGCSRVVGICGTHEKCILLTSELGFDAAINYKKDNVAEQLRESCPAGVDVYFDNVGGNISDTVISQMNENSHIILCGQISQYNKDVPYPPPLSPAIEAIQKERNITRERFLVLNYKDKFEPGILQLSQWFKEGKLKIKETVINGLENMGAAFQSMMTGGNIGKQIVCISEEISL
T2 sequence (P37238 238-503 H351A limits assumed): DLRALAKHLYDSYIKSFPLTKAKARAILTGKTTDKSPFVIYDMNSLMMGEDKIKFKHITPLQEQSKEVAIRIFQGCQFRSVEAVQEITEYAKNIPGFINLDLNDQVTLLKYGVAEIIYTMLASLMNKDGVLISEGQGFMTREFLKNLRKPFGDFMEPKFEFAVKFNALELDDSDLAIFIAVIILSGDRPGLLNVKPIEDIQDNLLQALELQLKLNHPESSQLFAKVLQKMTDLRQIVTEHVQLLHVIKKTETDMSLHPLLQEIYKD

In the case of `Cc1[nH]c2nc(C(C)N3CCN(c4ccccc4)CC3)nn2c(=O)c1Cc1ccc(F)cc1` (centres unmarked) [BPRPT0245], the “Figure 5B raw signal of the hPTGR2 inhibition dose-response (replicates)” value in series [1] (concentration 4.6 (unit not given)) is 5700 and 5540. Besides, the “Figure 5B raw signal of the hPTGR2 inhibition dose-response (replicates)” value in series [1] (concentration 13.7 (unit not given)) is 12160 and 11080 and 9760. Further, in series [1] (concentration 41.2 (unit not given)), the “Figure 5B raw signal of the hPTGR2 inhibition dose-response (replicates)” value was 25040 and 27420 and 26900. In series [1] (concentration 123.5 (unit not given)), the “Figure 5B raw signal of the hPTGR2 inhibition dose-response (replicates)” value was 32220 and 32000 and 34120. Moreover, the “Figure 5B raw signal of the hPTGR2 inhibition dose-response (replicates)” value in series [1] (concentration 370.4 (unit not given)) is 37280 and 38620 and 37900. Also, in series [1] (concentration 1111.1 (unit not given)), the “Figure 5B raw signal of the hPTGR2 inhibition dose-response (replicates)” value was 40200 and 38760 and 38680. Besides, in series [1] (concentration 3333.3 (unit not given)), the “Figure 5B raw signal of the hPTGR2 inhibition dose-response (replicates)” value is 40060 and 40940 and 40560. Moreover, the “Figure 5B raw signal of the hPTGR2 inhibition dose-response (replicates)” value in series [1] (concentration 10000 (unit not given)) was 42020 and 40520 and 40720. Also, the IC50 in series [1] (human PTGR2 enzymatic activity) is 8.92 nM. Also, in series [2], the “extent of hepatic steatosis” value is listed as “significantly decreased” and the hepatic triglycerides content entry is listed as “significantly decreased”. Moreover, the “serum ALT, total bilirubin, BUN and creatinine levels” value in series [3] was “no differences”. The “Pathological examination of bone marrow, brain, heart, lung, kidney, pancreas, brown fat, perigonadal fat” value in series [4] (26 weeks, vs vehicle) was “no significant difference”. Besides, in series [4] (Test group, first two animals, 26 weeks), the “White fat (Perigonadal fat)” value is listed as “X”. Moreover, in series [4] (Test group, last two animals, 26 weeks), the “White fat (Perigonadal fat): Inflammatory cell infiltration” value was 1 (1 = minimal (< 1%)) and 2 (2 = mild (1–25%)). Besides, in series [4] (setting [6]), the “Bone marrow: Cellularity, decreased, bone marrow” value is “-”; the “Bone marrow: Infiltration, lymphocyte” value is 1 (1 = minimal (< 1%)); the “Bone marrow: Mineralization, focal” value is given as “-”. The “Brain, Forebrain” value in series [4] (Test group, one value per animal (T1,T2,T2[sic],T4), 26 weeks) is on record as “X”. For the same compound, in series [4] (setting [7]), the “Brain, Cerebellum and Pons” value was “X”; the “Brain, Midbrain” value is reported as “X”; the “Brown fat: Increased adipocyte size” value was “+”; the “Heart: Inflammatory cell infiltration/Cardiomyopathy” value is 2 (2 = mild (1–25%)) (3×) and 1 (1 = minimal (< 1%)). Also, in series [4] (setting [7]), the “Heart: Vacuolation, cardiomyocyte” value was “- (3×) and 2 (2 = mild (1–25%))”; the “Kidney: Cytoplasmic vacuolation, renal tubule” value was 2 (2 = mild (1–25%)) (3×) and -; the “Kidney: Hyaline cast, renal tubule” value is 1 (1 = minimal (< 1%)) and - (3×); the “Kidney: Inflammatory cell infiltration, peripelvic /perivacscular” value is 2 (2 = mild (1–25%)) (3×) and 1 (1 = minimal (< 1%)). Also, in series [4] (setting [7]), the “Kidney: Mineralization, renal tubule” value is 1 (1 = minimal (< 1%)) and - (3×); the “Kidney: Tubular degeneration/regeneration with inflammatory cell infiltration” value is 2 (2 = mild (1–25%)); the “Liver: Hepatocellular adenoma, multiple” value is reported as “-”; the “Liver: Inflammation” value is 1 (1 = minimal (< 1%)) (2×) and 2 (2 = mild (1–25%)) (2×). Further, in series [4] (setting [7]), the “Liver: Lymphocytic cell infiltration, perivascular” value is 1 (1 = minimal (< 1%)) (2×) and 2 (2 = mild (1–25%)) (2×); the “Liver: Steatosis” value is 2 (2 = mild (1–25%)) (2×) and 4 (4 = moderately severe (51–75%)) (2×); the “Lung: Alveolar epithelium hyperplasia” value is 2 (2 = mild (1–25%)) and - (3×); the “Lung: Chronic inflammation, focal” value was 1 (1 = minimal (< 1%)) (2×) and - (2×). Moreover, in series [4] (setting [7]), the “Lung: Inflammatory cell infiltration, perivascular” value is 1 (1 = minimal (< 1%)) (2×) and 2 (2 = mild (1–25%)) (2×); the “Pancreas: Atrophy and accumulation adipocyte, acinar cell” value is on record as “-”; the “Pancreas: Fat infiltration, exocrine” value is 2 (2 = mild (1–25%)) (2×) and 1 (1 = minimal (< 1%)) (2×); the “Pancreas: Lymphocytic infiltration, perivascular” value is “- (2×) and 2 (2 = mild (1–25%)) (2×)”. Further, the “Pancreas: Pancreatic islets hyperplasia” value in series [4] (setting [7]) was 1 (1 = minimal (< 1%)) (2×) and - (2×). Also, the “Bone marrow, Sternum/ Femur” value in series [4] (Test group, three animals, 26 weeks) is recorded as “X”. Moreover, the “overall toxicity / pathology conclusion” value in series [4] was “no detectable toxicity”. Besides, the “overall toxicity / pathology conclusion” value in series [4] (listed as test article) is recorded as “not related”.

For the compound `CCCCCC(=O)/C=C/[C@H]1[C@H](O)CC(=O)[C@@H]1C/C=C\CCCC(=O)O` [15-keto-PGE2, 15-keto-prostaglandin E2], the “effect of H351A mutation on binding (native MS)” value in series [5] was “only a minor impact on 15-keto-PGE2 binding”.

For the origin of these results see paper PMC12081876, “Identification of PTGR2 inhibitors as a new therapeutic strategy for diabetes and obesity” (EMBO Molecular Medicine, 2025).
